According to patent publication US20200165194A1, “ADDITIVE COMPOSITION FOR CULTURE MEDIUM, ADDITIVE COMPOUND FOR CULTURE MEDIUM, AND METHOD FOR CULTURE OF CELLS OR TISSUE USING SAME” (NISSAN CHEMICAL CORPORATION, priority 2017, published 2020):
Read-outs that look alike come from different tables or passages of the source.

Key:
[1] = tested on: SKOV3 cells (human ovarian cancer-derived cell line); assay: Cell proliferation activity in three-dimensional medium FCeM, ATP assay (Experimental Example 1); format: cell-based; conditions: SKOV3, 3D medium FCeM, 4 days, DMSO control = 100%, average of two tests; for proliferation rate (%): compound 5 μM
Description: A cell proliferation promoting effect when the compound to be used in the present invention was added to a three-dimensional medium was studied. Specifically, precultured (adhesion cultured) SKOV3 cells (human ovarian cancer-derived cell line) were recovered and suspended in a three-dimensional cell culture medium (“FCeM (registered trade mark)” (Nissan chemical corporation)) to prepare a cell suspension. […] The cell suspension seeded in the plate was stood overnight at 37° C., 5% CO2. Then, a DMSO diluted solution (4.44 μL) of the compound to be used in the present invention was added at a final concentration of 5 μM (or two steps of […] and 10 μM) (no stirring after addition). After addition of each compound, the mixtures were stood for 4 days at 37° C., 5% CO2. […] The luminescence intensity (RLU value) was measured by FlexStation3 (manufactured by Molecular Devices), and cell proliferation was evaluated.
The proliferation rate was calculated based on the control (cells added with DMSO without containing the compound to be used in the present invention) as the standard (100%). The values shown in the tables are average values of the results of two tests.

[2] = tested on: human ovarian cancer cell line SKOV3; assay: Action on SKOV3 cell-2: 3D (deacylated gellan gum) and 2D culture, EGF medium, ATP assay (Experimental Example 3); conditions: for relative value of RLU (number of viable cells) / viability at 1 µM / viability at 5 µM / viability at 10 µM / viability at 20 µM: 4 days, compound non-addition = 100%; for viability at 1 µM / viability at 5 µM / viability at 10 µM / viability at 20 µM: Homo sapiens, SK-OV-3, 96 h
Description: According to the method of patent document 1 (WO 2014/017513), a composition of McCoy's 5a medium (manufactured by Sigma-Aldrich) containing 0.015% (w/v) deacylated gellan gum (KELCOGEL CG-LA, manufactured by Sansho Co., Ltd.) and 15% (v/v) FBS, 30 ng/mL human EGF (manufactured by PEPROTECH) was prepared using FCeM-series Preparation Kit (manufactured by Wako Pure Chemical Industries, Ltd.). In a single layer culture, a non-addition medium composition not containing deacylated gellan gum was prepared. Then, human ovarian cancer cell line SKOV3 (manufactured by DS PHARMA BIO MEDICAL) was suspended in the above-mentioned medium composition added with deacylated gellan gum, and dispensed into the wells of a 384 well flat bottom Ultr-low Attachment surface microplate (manufactured by Corning Incorporated, #3827) at 1000 cells/36 μL/well (three-dimensional culture (3D)). In a single layer culture (2D), human ovarian cancer cell line SKOV3 was suspended in the above-mentioned medium composition not containing deacylated gellan gum, and dispensed into the wells of a 384 well flat bottom microplate (manufactured by Corning Incorporated, #3712) at 400 cells/36 μL per well. After dispensing, the compound to be used in the present invention dissolved in dimethyl sulfoxide (DMSO) was added by 4 μL each at a final concentration of 0, 1, 5, 10, 20 μM, and continuously cultured for 4 days. Each plate was cultured in a standing state in a CO2 incubator (37° C., 5% CO2) for 4 days. An ATP reagent (40 μL) (CellTiter-Glo (registered trade mark) Luminescent Cell Viability Assay, manufactured by Promega) was added to the culture medium on day 4, and the mixture was stirred by a plateshaker (manufactured by AS ONE Corporation, Micro plate mixer NS-P) at room temperature for 15 min. The luminescence intensity (RLU value) was measured by EnSpire (manufactured by Perkin Elmer) and the luminescence value of the medium alone was subtracted to measure the number of viable cells.

[3] = tested on: hiPS cell line 253G1; assay: Human pluripotent stem cell (hiPS cell), EZSPHERE plate, ATP assay (Experimental Example 13); format: cell-based
Description: hiPS cell line 253G1 (purchased from RIKEN) was cultured on a dish coated with vitronectin VTN-N (manufactured by Thermo Fisher Scientific) using mTeSR1 (registered trade mark) medium (manufactured by STEMCELL Technologies). The above-mentioned cells in the proliferation phase were washed with PBS (manufactured by Fujifilm Corporation Wako Pure Chemical Industries, Ltd.), TrypLE Select (registered trade mark) (manufactured by Thermo Fisher Scientific) was added and the mixture was incubated at 37° C. for 3 min to remove the detaching solution. The medium was added and the cells were detached by pipetting. Thereafter, the supernatant was removed by centrifugation.
The aforementioned cells were suspended in a medium containing 10 μM Y-27632 (manufactured by Fujifilm Corporation Wako Pure Chemical Industries, Ltd.) and seeded in a 96-well EZSPHERE plate (manufactured by AGC TECHNO GLASS CO., LTD., #4860-900) at a cell concentration of 10000 cells/200 μL/well. […] The amount of each compound solution to be added was 2 μL/well. As a control, a DMSO solution dissolved in a medium was added (DMSO final concentration 0.05%). The medium was exchanged by half the volume every day, and each compound solution was also added to make the compound concentration constant.

[4] = 3D culture (deacylated gellan gum), 1 μM
[5] = 3D culture (deacylated gellan gum), 5 μM
[6] = 3D culture (deacylated gellan gum), 10 μM
[7] = 3D culture (deacylated gellan gum), 20 μM
[8] = single layer culture (2D) of SKOV3 cells
[9] = three-dimensional culture (3D) of SKOV3 cells

CCOC(=O)C/N=C(\CC)c1ccc(O)c(C)c1O [k-1:A-1]
proliferation rate (%) (5 μM) [1]: 119.1%
proliferation rate (%) (10 μM) [1]: 119.4%

CC/C(=N\CC(=O)OCc1ccccc1)c1ccc(O)c(C)c1O [k-1:A-2]
proliferation rate (%) (5 μM) [1]: 118.8%
proliferation rate (%) (10 μM) [1]: 129.4%

CCCCCCCC/N=C(\CC)c1ccc(O)c(C)c1O [k-1:A-3]
proliferation rate (%) (5 μM) [1]: 118.1%
proliferation rate (%) (10 μM) [1]: 112.6%

CC/C(=N\C(=O)Nc1ccccc1)c1ccc(O)c(C)c1O [k-1:A-5]
proliferation rate (%) (5 μM) [1]: 113%
proliferation rate (%) (10 μM) [1]: 124.3%

CCC(=NNC(=O)CNc1ccc(O)cc1)c1ccc(O)c(C)c1O [k-1:D-2]
relative value of RLU (number of viable cells) ([2]; 2D single layer culture, 1 μM): 101%
relative value of RLU (number of viable cells) ([2]; 2D single layer culture, 5 μM): 94%
relative value of RLU (number of viable cells) ([2]; 2D single layer culture, 10 μM): 82%
relative value of RLU (number of viable cells) ([2]; 2D single layer culture, 20 μM): 59%
relative value of RLU (number of viable cells) [2, 4]: 116%
relative value of RLU (number of viable cells) [2, 5]: 129%
relative value of RLU (number of viable cells) [2, 6]: 143%
relative value of RLU (number of viable cells) [2, 7]: 126%
cell proliferation promoting effect (in words) [2, 8]: a favorable cell proliferation promoting effect was not observed
cell proliferation promoting effect (in words) [2, 9]: exhibited cell proliferation promoting effect at a wide concentration range

CCC(=NNC(=O)CNc1ccccc1C)c1ccc(O)c(C)c1O [k-1:H-2]
proliferation rate (%) [1]: 147.27%

CCC(=NNC(=O)CNc1cccc(C)c1)c1ccc(O)c(C)c1O [k-1:H-3]
proliferation rate (%) [1]: 168.98%

CCC(=NNC(=O)CNc1ccc(C)cc1)c1ccc(O)c(C)c1O [k-1:H-4]
proliferation rate (%) [1]: 105.07%

CCC(=NNC(=O)CNc1ccc(F)cc1)c1ccc(O)c(C)c1O [k-1:H-5]
proliferation rate (%) [1]: 154.19%

CCC(=NNC(=O)CNc1cccc2ccccc12)c1ccc(O)c(C)c1O [k-1:H-6]
proliferation rate (%) [1]: 125.68%

CCOc1ccc(NCC(=O)NN=C(CC)c2ccc(O)c(C)c2O)cc1 [k-1:H-9]
proliferation rate (%) [1]: 95.96%

CCC(=NNC(=O)NC(C)c1cccc(O)c1)c1ccc(O)c(C)c1O (stereo not shown) [k-1:I-10]
relative value (%) ([3]; hiPS 253G1, EZSPHERE plate, 5 μM, 3 days, RLU of DMSO addition = 100%): 194%
proliferation activity (in words) ([3]; human pluripotent stem cells under three-dimensional conditions): promoted proliferation activity in human pluripotent stem cells
relative value of RLU (number of viable cells) ([2]; 2D single layer culture, 1 μM): 99%
relative value of RLU (number of viable cells) ([2]; 2D single layer culture, 5 μM): 98%
relative value of RLU (number of viable cells) ([2]; 2D single layer culture, 10 μM): 99%
relative value of RLU (number of viable cells) ([2]; 2D single layer culture, 20 μM): 100%
relative value of RLU (number of viable cells) [2, 4]: 100%
relative value of RLU (number of viable cells) [2, 5]: 135%
relative value of RLU (number of viable cells) [2, 6]: 181%
relative value of RLU (number of viable cells) [2, 7]: 197%
cell proliferation promoting effect (in words) [2, 8]: a favorable cell proliferation promoting effect was not observed
cell proliferation promoting effect (in words) [2, 9]: exhibited cell proliferation promoting effect at a wide concentration range

CC/C(=N\NC(=O)OCc1cccc(O)c1)c1ccc(O)c(C)c1O [k-1:N-1]
viability at 1 µM ([2]; read-out: relative value of RLU (number of viable cells), 2D single layer culture, 1 μM): 101%
viability at 5 µM ([2]; read-out: relative value of RLU (number of viable cells), 2D single layer culture, 5 μM): 94%
viability at 10 µM ([2]; read-out: relative value of RLU (number of viable cells), 2D single layer culture, 10 μM): 89%
viability at 20 µM ([2]; read-out: relative value of RLU (number of viable cells), 2D single layer culture, 20 μM): 84%
viability at 1 µM ([2]; read-out: relative value of RLU (number of viable cells), 3D culture (deacylated gellan gum), 1 μM): 101%
viability at 5 µM ([2]; read-out: relative value of RLU (number of viable cells), 3D culture (deacylated gellan gum), 5 μM): 134%
viability at 10 µM ([2]; read-out: relative value of RLU (number of viable cells), 3D culture (deacylated gellan gum), 10 μM): 169%
viability at 20 µM ([2]; read-out: relative value of RLU (number of viable cells), 3D culture (deacylated gellan gum), 20 μM): 186%
cell proliferation promoting effect (in words) [2, 8]: a favorable cell proliferation promoting effect was not observed
cell proliferation promoting effect (in words) [2, 9]: exhibited cell proliferation promoting effect at a wide concentration range

CC(=NNC(=O)CNc1ccccc1)c1ccc(O)c(C)c1O [k-2:H-1]
proliferation rate (%) [1]: 184.61%

CC(=NNC(=O)CNc1ccccc1C)c1ccc(O)c(C)c1O [k-2:H-2]
proliferation rate (%) [1]: 131.13%

CC(=NNC(=O)CNc1cccc(C)c1)c1ccc(O)c(C)c1O [k-2:H-3]
proliferation rate (%) [1]: 139.33%

CC(=NNC(=O)CNc1ccc(C)cc1)c1ccc(O)c(C)c1O [k-2:H-4]
proliferation rate (%) [1]: 128.2%

CC(=NNC(=O)CNc1ccc(F)cc1)c1ccc(O)c(C)c1O [k-2:H-5]
proliferation rate (%) [1]: 158.56%

CC(=NNC(=O)CNc1cccc2ccccc12)c1ccc(O)c(C)c1O [k-2:H-6]
proliferation rate (%) [1]: 116.79%

CCC(Nc1ccccc1)C(=O)NN=C(C)c1ccc(O)c(C)c1O (stereo not shown) [k-2:H-7]
proliferation rate (%) [1]: 201.93%

CCOc1ccc(NCC(=O)NN=C(C)c2ccc(O)c(C)c2O)cc1 [k-2:H-9]
proliferation rate (%) [1]: 131.36%

CCC(=NNC(=O)CNc1ccccc1)c1c(O)cc(O)c(C)c1O [k-3:H-1]
proliferation rate (%) [1]: 133.76%

CCC(=NNC(=O)CNc1ccccc1C)c1c(O)cc(O)c(C)c1O [k-3:H-2]
proliferation rate (%) [1]: 117.84%

CCC(=NNC(=O)CNc1cccc(C)c1)c1c(O)cc(O)c(C)c1O [k-3:H-3]
proliferation rate (%) [1]: 134.65%

CCC(=NNC(=O)CNc1ccc(C)cc1)c1c(O)cc(O)c(C)c1O [k-3:H-4]
proliferation rate (%) [1]: 135.5%

CCC(=NNC(=O)CNc1ccc(F)cc1)c1c(O)cc(O)c(C)c1O [k-3:H-5]
proliferation rate (%) [1]: 141.82%

CCC(=NNC(=O)CNc1cccc2ccccc12)c1c(O)cc(O)c(C)c1O [k-3:H-6]
proliferation rate (%) [1]: 134.6%

CCC(=NNC(=O)C(CC)Nc1ccccc1)c1c(O)cc(O)c(C)c1O (stereo not shown) [k-3:H-7]
proliferation rate (%) [1]: 126.34%

CCOc1ccc(NCC(=O)NN=C(CC)c2c(O)cc(O)c(C)c2O)cc1 [k-3:H-9]
proliferation rate (%) [1]: 129.93%

Cc1c(O)ccc(C(CC(C)C)=NNC(=O)CNc2ccccc2)c1O [k-5:H-1]
proliferation rate (%) [1]: 148.88%

Cc1ccccc1NCC(=O)NN=C(CC(C)C)c1ccc(O)c(C)c1O [k-5:H-2]
proliferation rate (%) [1]: 133.96%

Cc1cccc(NCC(=O)NN=C(CC(C)C)c2ccc(O)c(C)c2O)c1 [k-5:H-3]
proliferation rate (%) [1]: 146.44%

Cc1ccc(NCC(=O)NN=C(CC(C)C)c2ccc(O)c(C)c2O)cc1 [k-5:H-4]
proliferation rate (%) [1]: 114.76%

Cc1c(O)ccc(C(CC(C)C)=NNC(=O)CNc2ccc(F)cc2)c1O [k-5:H-5]
proliferation rate (%) [1]: 145.4%

Cc1c(O)ccc(C(CC(C)C)=NNC(=O)CNc2cccc3ccccc23)c1O [k-5:H-6]
proliferation rate (%) [1]: 115.2%

CCC(Nc1ccccc1)C(=O)NN=C(CC(C)C)c1ccc(O)c(C)c1O (stereo not shown) [k-5:H-7]
proliferation rate (%) [1]: 130.63%

CCOc1ccc(NCC(=O)NN=C(CC(C)C)c2ccc(O)c(C)c2O)cc1 [k-5:H-9]
proliferation rate (%) [1]: 38.38%
